{"source": "patent US20170350889A1", "about": "“CELL IDENTIFICATION METHOD” (Centre National De La Recherche Scientifique (CNRS), priority 2014, published 2017)", "system": "macaques", "experiment": "Replication of the SIV virus expressing Cre recombinase after infection in macaques (viral RNA in plasma)", "type": "in vivo", "conditions": "one macaque infected, FIG. 17", "excerpt": "FIG. 17 is a graph showing the replication of the SIV virus expressing Cre recombinase evaluated by the number of copies of viral RNA/ml of plasma (y-axis) after infection in macaques, as a function of time (in days).\nThe dose and the route of infection are able to be modified as a function of the scientific aims of the experimentation. A method is briefly described below: • Infect the macaques intravenously (50 AID50) or mucosally (50-5000 AID50). • Monitor the viral load in kinetic conditions by quantification of the viral RNAs in the plasma of the infected animals."}
{"substance": "SIVmac239-Nef-IRES-Cre: SIVmac239 virus expressing Cre recombinase via Nef-IRES-Cre (SEQ ID NO: 25; plasmid SEQ ID NO: 13)", "values": [{"measurement": "replication dynamics (copies of viral RNA/ml of plasma over time)", "value": "normal replication dynamics"}]}
